Each structure is given as a SMILES string.

The target in the first assay is T1, C-C chemokine receptor type 1 (Homo sapiens) (UniProt P32246).
T1 sequence (whole entry): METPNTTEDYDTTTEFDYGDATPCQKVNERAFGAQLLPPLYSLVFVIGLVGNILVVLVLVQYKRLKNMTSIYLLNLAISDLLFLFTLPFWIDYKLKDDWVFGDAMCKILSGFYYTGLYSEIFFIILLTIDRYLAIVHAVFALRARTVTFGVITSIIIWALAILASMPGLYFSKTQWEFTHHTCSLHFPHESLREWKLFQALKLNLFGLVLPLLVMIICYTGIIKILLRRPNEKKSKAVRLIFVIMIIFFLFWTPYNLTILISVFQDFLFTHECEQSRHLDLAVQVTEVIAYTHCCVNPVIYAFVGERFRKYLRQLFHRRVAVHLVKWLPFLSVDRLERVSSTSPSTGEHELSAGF
Briefly: Inhibition of [125I]-MIP-1 alpha binding to recombinant human C-C chemokine receptor type 1 expressed in HEK293 cells at 10 uM concentration. It is filed as cell-based.
As a reminder, the inhibition is how much of the control response was suppressed. `N#CC(CCCN1CCC(O)(c2ccc(N)cc2)CC1)(c1ccccc1)c1ccccc1`: the inhibition was found to be 33%.

Take `N#CC(CCCN1CCCC(O)(c2ccc(F)cc2)C1)(c1ccccc1)c1ccccc1` (centres undefined): the inhibition came out at 0%.

Consider `N#CC1(CCCN2CCC(C(=O)O)(c3ccccc3)CC2)c2ccccc2Cc2ccccc21`, for which the inhibition came to 15%.

Regarding `COC(=O)C1(c2ccccc2)CCN(CCCC2(C#N)c3ccccc3Cc3ccccc32)CC1`, the inhibition amounted to 62%.

Consider `N#CC(CCCN1CCC(O)(c2ccc(Cl)cc2)CC1)c1cccc(OCc2ccccc2)c1` (centres undefined), for which the inhibition was found to be 0%.

Turning to `N#CC(CCCN1CCC(O)(c2ccc(Cl)cc2)CC1)c1ccccc1C(F)(F)F` (centres undefined), the inhibition was 25%.

As to `N#CC(CCCN1CCC(O)(c2ccc(Cl)cc2)CC1)c1cccc2ccccc12` (centres undefined), the inhibition was found to be 51%.

On to `N#CC(CCCN1CCC(O)(c2ccc(-c3ccccc3)cc2)CC1)(c1ccccc1)c1ccccc1`, for which the inhibition is 30%.

As for `N#CC(CCCN1CCC(O)(c2ccc(Cl)cc2)CC1)c1ccccc1OCc1ccccc1` (centres undefined), the inhibition worked out at 46%.

On to `N#CC(CCCN1CCC(O)(c2ccc(F)cc2)C1)(c1ccccc1)c1ccccc1` (centres undefined), for which the inhibition was 22%.

Another assay concerns the target T1, C-C chemokine receptor type 1 (Homo sapiens). Briefly: Inhibition of [125I]-MIP-1 alpha binding to recombinant human C-C chemokine receptor type 1 expressed in HEK293 cells at 3 uM concentration. It is filed as cell-based.
For `N#CC1(c2ccccc2)CCN(CCCC2(C#N)c3ccccc3CSc3ccccc32)CC1` (centres undefined), the inhibition stood at 0%.

With `N#CC1(CCCN2CCC(C(O)(c3ccccc3)c3ccccc3)CC2)c2ccccc2CSc2ccccc21` (centres undefined), the inhibition worked out at 0%.

Take `N#CC1(CCCN2CCC(c3ccccc3)CC2)c2ccccc2CSc2ccccc21` (centres undefined): the inhibition is 19%.

As to `CC(=O)C1(c2ccccc2)CCN(CCCC2(C#N)c3ccccc3CSc3ccccc32)CC1` (centres undefined), the inhibition amounted to 0%.

These data come from ChEMBL document CHEMBL1132282, “Discovery of novel non-peptide CCR1 receptor antagonists” (J Med Chem, 1999).
